Measurements as given in US20240208989A1, “NOVEL 12-EPI-MUTILIN COMPOUNDS AND USES THEREOF” (NABRIVA THERAPEUTICS GMBH, priority 2021, published 2024).
Converted amounts (≈) assume the structure as drawn. Where a name gives a salt, the structure may show the parent alone. Read-outs that look alike come from different tables or passages of the source.

How the values were obtained:
[1] = system: Staphylococcus aureus ATCC49951; test: MIC by standard broth microdilution (CLSI), CAMHB; format: cell-based; settings: for MIC: Staphylococcus aureus, ATCC49951
Description: (§1) The in vitro activity against bacteria including isolates that are resistant to Lefamulin was determined by standard broth microdilution according to the Clinical and Laboratory Standards Institute CLSI document (Performance Standards for Antimicrobial Susceptibility Testing) M100Ed29E (2019) and (Methods for Dilution Antimicrobial Susceptibility Test for Bacteria That Grow Aerobically) M07Ed11 (2018) or other years' versions thereof. The data were obtained using cation-adjusted Mueller Hinton broth medium (CAMHB).

[2] = system: Staphylococcus aureus cfr (+); test: MIC by standard broth microdilution (CLSI), CAMHB; format: cell-based; settings: for MIC: Staphylococcus aureus, read-out: MIC Staphylococcus aureus cfr (+) (n = 2), Lefamulin resistant, n = 2 isolates
Description: as §1

[3] = system: Staphylococcus aureus vga(A) (+); test: MIC by standard broth microdilution (CLSI), CAMHB; format: cell-based; settings: Lefamulin resistant; for MIC: Staphylococcus aureus
Description: as §1

[4] = system: Streptococcus agalactiae lsa(E); test: MIC by standard broth microdilution (CLSI), CAMHB; format: cell-based; settings: for MIC: Streptococcus agalactiae, read-out: MIC Streptococcus agalactiae lsa(E) (n = 2), Lefamulin resistant, n = 2 isolates
Description: as §1

[5] = system: Streptococcus pneumoniae ATCC49619; test: MIC by standard broth microdilution (CLSI), CAMHB; format: cell-based; settings: for MIC: Streptococcus pneumoniae, ATCC49619
Description: as §1

Borreliella spp. = test: MIC by broth microdilution against Borreliella strains; format: cell-based, Borreliella burgdorferi (n=5) and Borreliella garinii (n=1); settings: BSK II medium, n = 6 isolates
Description: Minimal inhibitory concentrations (MIC) were determined against five (n=5) Borreliella burgdorferi isolates (ATCC 51990, 55131, 35211, 35210, 53899) and one (n=1) Borreliella garinii isolate (ATCC 51991) by broth microdilution technique ([…]., Jorgensen, J. H., Barbour, A. G. In vitro antimicrobial susceptibility testing of Boreliella burgdorferi: a microdilution MIC method and time-kill studies. […] Feng, J., Wang, T., Shi, W., et al. Identification of novel activity against Boreliella burgdorferi persisters using an FDA approved drug library. […] (2018) Methods for dilution antimicrobial susceptibility tests for bacteria that grow aerobically: Eleventh edition. […]; CLSI. (2021) Performance Standards for Antimicrobial Susceptibility Testing: Thirty-first Edition. M100-S31). Briefly, Borreliella spp. were grown at 36° C. under microaerophilic conditions in BSK II medium until the logarithmic or stationary growth phase was reached. The growth phase was determined by semiquantitative measurement of active and dormant cells by fluorescence microscopy of cells stained with the fluorescent dyes SYBR Green I and propidium iodide. An inoculum of 10^5-10^6 spirochetes/mL was used to inoculate broth microdilution plates containing serially 2-fold diluted test compounds.

Cutibacterium acnes = test: MIC by standard agar dilution (CLSI M11), anaerobic; format: cell-based; settings: Wilkins-Chalgren-Agar, 48 h, 37° C., read-out: MIC Cutibacterium acnes (n = 5)
Cutibacterium granulosum = test: as above; format: cell-based; settings: Wilkins-Chalgren-Agar, 48 h, 37° C., read-out: MIC Cutibacterium granulosum (n = 7)
Cutibacterium avidum = test: as above; format: cell-based; settings: Wilkins-Chalgren-Agar, 48 h, 37° C., read-out: MIC Cutibacterium avidum (n = 5)
[6] = Cytotoxicity, human hepatocyte assay (ATPlite); format: cell-based; settings: primary human hepatocytes
Description: The cytotoxicity for compounds of the present invention was determined using a human hepatocyte assay. Primary human hepatocytes were incubated with various test compound concentrations (in triplicate) for 2 hours. Viability of cells is then measured by the luminescence ATPlite detection assay system according to the manufacturer (Perkin Elmer). ATP is a marker for cell viability because it is present in all metabolically active cells and the concentration declines very rapidly when the cells undergo necrosis or apoptosis. The ATPlite assay system is based on the production of light caused by the reaction of ATP with added luciferase and D-luciferin, where the emitted light is proportional to the ATP concentration (within certain limits).

[7] = Lefamulin resistant, n = 2 isolates
[8] = 192 h, stationary growth phase, read after 8 days, read-out: MIC (μg/mL) for Stationary Growth Phase Culture (n = 6)
[9] = logarithmic growth phase, read after 5 or 6 days, read-out: MIC (μg/mL) for Logarithmic Growth Phase Culture (n = 6)

Compound: 12-epi-12-desvinyl-14-O-[(azepan-4-ylsulfanyl)-acetyl]-12-((E)-2-pyridin-3-yl-ethenyl) mutilin hydrochloride [Example 154 of WO 2015/110481, reference compound]
- MIC Staphylococcus aureus ATCC49951 [1]: ≤0.03 µg/mL
- MIC Staphylococcus aureus cfr (+) (n = 2) [2, 7]: 0.5 to 4 µg/mL
- MIC Staphylococcus aureus vga(A) (+) [3]: 2 to 4 µg/mL
- MIC Streptococcus agalactiae lsa(E) (n = 2) [4, 7]: 4 to 8 µg/mL
- MIC Streptococcus pneumoniae ATCC49619 [5]: ≤0.03 µg/mL

Compound: CC1(C)S[C@@H]2[C@H](NC(=O)[C@H](N)c3ccc(O)cc3)C(=O)N2[C@H]1C(=O)O [Amoxicillin]
- MIC (Borreliella spp.; [8]): 0.03 to 0.12 µg/mL (≈ 0.0821 to 0.328 µM)
- MIC (Borreliella spp.; [9]): 0.03 to 0.12 µg/mL (≈ 0.0821 to 0.328 µM)

Compound: CC[C@H]1OC(=O)[C@H](C)[C@@H](O[C@H]2C[C@@](C)(OC)[C@@H](O)[C@H](C)O2)[C@H](C)[C@@H](O[C@@H]2O[C@H](C)C[C@H](N(C)C)[C@H]2O)[C@](C)(O)C[C@@H](C)CN(C)[C@H](C)[C@@H](O)[C@]1(C)O [Azithromycin]
- MIC (Borreliella spp.; [8]): 0.001 to 0.004 µg/mL (≈ 0.00134 to 0.00534 µM)
- MIC (Borreliella spp.; [9]): 0.001 to 0.004 µg/mL (≈ 0.00134 to 0.00534 µM)

Compound: Cc1nccnc1/C=C/[C@@]1(C)C[C@@H](OC(=O)CSC2CCNCC2)[C@]2(C)[C@H](C)CC[C@]3(CCC(=O)[C@H]32)[C@@H](C)[C@@H]1O [BC-9842, 12-epi-12-desvinyl-14-O-[(Piperidin-4-ylsulfanyl]-acetyl]-12-[2-(3-methyl-pyrazin-2-yl)-ethenyl]-mutilin]
- MIC (Cutibacterium acnes): 0.03 to 0.05 µg/mL (≈ 0.0526 to 0.0877 µM)
- MIC (Cutibacterium granulosum): 0.015 to 0.12 µg/mL (≈ 0.0263 to 0.211 µM)
- MIC (Borreliella spp.; [8]): 0.001 to 0.004 µg/mL (≈ 0.00175 to 0.00702 µM)
- MIC (Borreliella spp.; [9]): 0.001 to 0.004 µg/mL (≈ 0.00175 to 0.00702 µM)
- MIC (Cutibacterium avidum): 0.015 to 0.25 µg/mL (≈ 0.0263 to 0.439 µM)

Compound: CO/N=C(\C(=O)N[C@@H]1C(=O)N2C(C(=O)O)=C(CSc3nc(=O)c(=O)[nH]n3C)CS[C@H]12)c1csc(N)n1 [Ceftriaxone]
- MIC (Borreliella spp.; [8]): 0.004 to 0.03 µg/mL (≈ 0.00721 to 0.0541 µM)
- MIC (Borreliella spp.; [9]): 0.004 to 0.016 µg/mL (≈ 0.00721 to 0.0289 µM)

Compound: CO/N=C(\C(=O)N[C@@H]1C(=O)N2C(C(=O)O)=C(COC(N)=O)CS[C@H]12)c1ccco1 [Cefuroxime]
- MIC (Borreliella spp.; [8]): 0.016 to 0.25 µg/mL (≈ 0.0377 to 0.589 µM)
- MIC (Borreliella spp.; [9]): 0.016 to 0.25 µg/mL (≈ 0.0377 to 0.589 µM)

Compound: C[C@H]1c2cccc(O)c2C(=O)C2=C(O)[C@]3(O)C(=O)C(C(N)=O)=C(O)[C@@H](N(C)C)[C@@H]3[C@@H](O)[C@@H]21 [Doxycycline]
- MIC (Borreliella spp.; [8]): 0.03 to 0.5 µg/mL (≈ 0.0675 to 1.13 µM)
- MIC (Borreliella spp.; [9]): 0.03 to 0.5 µg/mL (≈ 0.0675 to 1.13 µM)

Compound: CC[C@H]1OC(=O)[C@H](C)[C@@H](O[C@H]2C[C@@](C)(OC)[C@@H](O)[C@H](C)O2)[C@H](C)[C@@H](O[C@@H]2O[C@H](C)C[C@H](N(C)C)[C@H]2O)[C@](C)(O)C[C@@H](C)C(=O)[C@H](C)[C@@H](O)[C@]1(C)O [Erythromycin]
- MIC (Borreliella spp.; [8]): 0.001 to 0.004 µg/mL (≈ 0.00136 to 0.00545 µM)
- MIC (Borreliella spp.; [9]): 0.002 to 0.016 µg/mL (≈ 0.00273 to 0.0218 µM)

Compound: C[C@@H]1CC[C@@]23CCC(=O)[C@H]2[C@]1(C)[C@H](OC(=O)CS[C@H]1CO[C@H]2[C@@H]1OC[C@@H]2N)C[C@](C)(/C=C/c1cccnc1)[C@@H](O)[C@@H]3C [Example 1, 12-epi-12-Desvinyl-14-O-{[(3S,3aR,6S,6aS)-3-amino-2,3,3a,5,6,6a-hexahydrofuro[3,2-b]furan-6-yl]sulfanylacetyl}-12-[(E)-2-(3-pyridyl)-ethenyl]-mutilin dihydrochloride]
- MIC (Cutibacterium acnes): 0.015 to 0.12 µg/mL
- IC50 at 2 h [6]: 215 µM
- MIC (Cutibacterium granulosum): 0.015 to 0.03 µg/mL
- MIC [1]: ≤ 0.03 µg/mL
- MIC [2]: 0.12 to 0.5 µg/mL
- MIC [3]: 0.5 µg/mL
- MIC [4]: 0.06 to 0.12 µg/mL
- MIC [5]: ≤ 0.03 µg/mL
- MIC (Borreliella spp.; [8]): 0.001 to 0.004 µg/mL
- MIC (Borreliella spp.; [9]): 0.001 to 0.002 µg/mL
- MIC (Cutibacterium avidum): 0.015 to 0.06 µg/mL

Compound: C[C@@H]1CC[C@@]23CCC(=O)[C@H]2[C@]1(C)[C@H](OC(=O)CS[C@H]1CO[C@H]2[C@@H]1OC[C@@H]2N)C[C@](C)(/C=C/c1cncnc1)[C@@H](O)[C@@H]3C [Example 2, 12-epi-12-Desvinyl-14-O-{[(3S,3aR,6S,6aS)-3-amino-2,3,3a,5,6,6a-hexahydrofuro[3,2-b]furan-6-yl]sulfanylacetyl}-12-[(E)-2-(pyrimidin-5-yl)-ethenyl]-mutilin dihydrochloride]
- MIC (Cutibacterium acnes): 0.015 to 0.12 µg/mL
- IC50 at 2 h [6]: > 609 µM
- MIC (Cutibacterium granulosum): 0.015 to 0.03 µg/mL
- MIC [1]: ≤ 0.03 µg/mL
- MIC [2]: 0.12 to 1 µg/mL
- MIC [3]: 1 µg/mL
- MIC [4]: 0.03 to 0.06 µg/mL
- MIC [5]: ≤ 0.03 µg/mL
- MIC (Borreliella spp.; [8]): 0.001 to 0.004 µg/mL
- MIC (Borreliella spp.; [9]): 0.001 to 0.002 µg/mL
- MIC (Cutibacterium avidum): 0.015 to 0.06 µg/mL

Compound: Cc1nccnc1/C=C/[C@@]1(C)C[C@@H](OC(=O)CS[C@H]2CO[C@H]3[C@@H]2OC[C@@H]3N)[C@]2(C)[C@H](C)CC[C@]3(CCC(=O)[C@H]32)[C@@H](C)[C@@H]1O [Example 3, 12-epi-12-Desvinyl-14-O-{[(3S,3aR,6S,6aS)-3-amino-2,3,3a,5,6,6a-hexahydrofuro[3,2-b]furan-6-yl]sulfanylacetyl}-12-[(E)-2-(3-methyl-pyrazin-2-yl)-ethenyl]-mutilin dihydrochloride]
- MIC (Cutibacterium acnes): 0.03 to 0.5 µg/mL
- IC50 at 2 h [6]: > 433 µM
- MIC (Cutibacterium granulosum): 0.015 to 0.12 µg/mL
- MIC [1]: ≤ 0.03 µg/mL
- MIC [2]: 1 µg/mL
- MIC [3]: 1 µg/mL
- MIC [4]: 0.5 to 1 µg/mL
- MIC [5]: ≤ 0.03 µg/mL
- MIC (Borreliella spp.; [8]): 0.001 to 0.008 µg/mL
- MIC (Borreliella spp.; [9]): 0.001 to 0.004 µg/mL
- MIC (Cutibacterium avidum): 0.03 to 0.25 µg/mL

Compound: C=C[C@]1(C)C[C@@H](OC(=O)CS[C@@H]2CC[C@@H](N)C[C@H]2O)[C@]2(C)[C@H](C)CC[C@]3(CCC(=O)[C@H]32)[C@@H](C)[C@@H]1O [Lefamulin, reference compound]
- MIC (Cutibacterium acnes): 0.03 to 0.5 µg/mL (≈ 0.0591 to 0.985 µM)
- MIC (Cutibacterium granulosum): 0.015 to 0.25 µg/mL (≈ 0.0295 to 0.492 µM)
- MIC [1]: ≤ 0.03 µg/mL
- MIC [2]: 16 µg/mL (≈ 31.5 µM)
- MIC [3]: 8 µg/mL (≈ 15.8 µM)
- MIC [4]: 16 µg/mL (≈ 31.5 µM)
- MIC [5]: ≤ 0.03 µg/mL
- MIC (Borreliella spp.; [8]): 0.001 to 0.008 µg/mL (≈ 0.00197 to 0.0158 µM)
- MIC (Borreliella spp.; [9]): 0.001 to 0.008 µg/mL (≈ 0.00197 to 0.0158 µM)
- MIC (Cutibacterium avidum): 0.03 to 0.06 µg/mL (≈ 0.0591 to 0.118 µM)

Compound: C[C@H]1COc2c(N3CCN(C)CC3)c(F)cc3c(=O)c(C(=O)O)cn1c23 [Levofloxacin]
- MIC (Borreliella spp.; [8]): 2 to 8 µg/mL (≈ 5.53 to 22.1 µM)
- MIC (Borreliella spp.; [9]): 2 to 4 µg/mL (≈ 5.53 to 11.1 µM)

Compound: C=C[C@]1(C)C[C@@H](OC(=O)CO)[C@]2(C)[C@H](C)CC[C@]3(CCC(=O)[C@H]32)[C@@H](C)[C@@H]1O [Pleuromutilin]
- MIC (Borreliella spp.; [8]): 0.12 to 2 µg/mL (≈ 0.317 to 5.28 µM)
- MIC (Borreliella spp.; [9]): 0.12 to 1 µg/mL (≈ 0.317 to 2.64 µM)
